The values that follow come from paper PMC3237899 (2011).

Assay [1] addresses Jak2-V617F (Homo sapiens, UniProt O60674, V617F). In words: in vitro kinase assay with recombinant protein, autophosphorylation. Format: biochemical.
Assay [2] addresses Jak2 wild type (Homo sapiens, UniProt O60674). Described as above. Format: biochemical.

Sequence of Jak2 wild type (O60674 whole entry): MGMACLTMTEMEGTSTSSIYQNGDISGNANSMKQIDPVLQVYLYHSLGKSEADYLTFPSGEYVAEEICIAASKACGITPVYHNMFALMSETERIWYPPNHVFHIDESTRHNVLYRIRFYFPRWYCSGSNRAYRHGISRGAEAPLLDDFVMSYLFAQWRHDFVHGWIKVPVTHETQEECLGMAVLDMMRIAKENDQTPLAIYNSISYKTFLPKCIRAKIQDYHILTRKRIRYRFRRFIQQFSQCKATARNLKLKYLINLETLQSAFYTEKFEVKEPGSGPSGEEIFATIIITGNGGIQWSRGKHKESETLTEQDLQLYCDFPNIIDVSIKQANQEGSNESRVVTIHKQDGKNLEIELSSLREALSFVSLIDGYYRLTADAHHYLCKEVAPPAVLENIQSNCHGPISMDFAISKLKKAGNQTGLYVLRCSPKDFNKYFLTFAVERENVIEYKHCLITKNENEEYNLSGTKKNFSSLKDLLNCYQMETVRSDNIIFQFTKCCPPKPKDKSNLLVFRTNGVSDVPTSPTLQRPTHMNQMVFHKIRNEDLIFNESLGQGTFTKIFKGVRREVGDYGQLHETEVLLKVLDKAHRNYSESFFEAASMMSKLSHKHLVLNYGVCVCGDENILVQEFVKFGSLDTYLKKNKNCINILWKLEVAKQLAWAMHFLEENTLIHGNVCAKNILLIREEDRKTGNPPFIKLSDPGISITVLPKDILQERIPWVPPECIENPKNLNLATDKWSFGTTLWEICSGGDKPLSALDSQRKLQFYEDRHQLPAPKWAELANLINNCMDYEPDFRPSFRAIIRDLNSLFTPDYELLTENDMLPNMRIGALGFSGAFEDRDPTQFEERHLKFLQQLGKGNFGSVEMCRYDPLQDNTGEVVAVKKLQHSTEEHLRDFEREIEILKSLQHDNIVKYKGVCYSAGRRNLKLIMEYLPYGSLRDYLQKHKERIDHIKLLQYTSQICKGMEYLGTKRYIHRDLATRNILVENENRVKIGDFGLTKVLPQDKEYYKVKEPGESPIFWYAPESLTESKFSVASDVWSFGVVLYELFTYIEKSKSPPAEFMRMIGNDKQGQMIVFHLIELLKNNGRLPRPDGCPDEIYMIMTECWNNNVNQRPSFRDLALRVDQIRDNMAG
Sequence of Jak2-V617F (O60674 545-1132 V617F limits assumed): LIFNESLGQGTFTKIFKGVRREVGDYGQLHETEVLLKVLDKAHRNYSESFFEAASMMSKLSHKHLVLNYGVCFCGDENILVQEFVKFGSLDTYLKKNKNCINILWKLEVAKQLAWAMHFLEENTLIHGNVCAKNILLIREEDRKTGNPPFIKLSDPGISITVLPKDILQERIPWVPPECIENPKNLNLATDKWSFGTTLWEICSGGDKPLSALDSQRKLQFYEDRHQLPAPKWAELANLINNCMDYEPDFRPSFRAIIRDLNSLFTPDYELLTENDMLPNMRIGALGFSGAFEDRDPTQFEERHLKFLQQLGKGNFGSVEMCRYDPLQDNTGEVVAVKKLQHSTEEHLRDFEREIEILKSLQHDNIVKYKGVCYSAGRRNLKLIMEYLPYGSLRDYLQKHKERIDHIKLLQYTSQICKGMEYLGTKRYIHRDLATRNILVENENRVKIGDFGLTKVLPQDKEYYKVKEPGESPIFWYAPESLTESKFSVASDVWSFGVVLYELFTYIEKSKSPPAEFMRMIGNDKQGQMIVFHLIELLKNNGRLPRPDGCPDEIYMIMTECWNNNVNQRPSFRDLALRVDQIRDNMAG

Turning to `CN(C)c1ccc(C(O)c2cc3ccccc3s2)cc1` (centres unmarked) [A46, 1-benzothiophen-2-yl-(4-dimethylaminophenyl)methanol], the IC50 is about 0.1 µM in assay [1] and about 1 µM in assay [2].

The term IC50 denotes the concentration needed to halve the response being measured.
